Values of other authors as cited in patent US20060029543A1, “Treatment of B-cell lymphoma” (priority 2004, published 2006).

Conditions: received more than 200 milligrams per meter squared of doxorubicin

SMILES: COc1cccc2c1C(=O)c1c(O)c3c(c(O)c1C2=O)C[C@@](O)(C(=O)CO)C[C@@H]3O[C@H]1C[C@H](N)[C@H](O)[C@H](C)O1 [doxorubicin]
- Left ventricular dysfunction, long-term survivors affected: 8 of 57
